Measured values taken from patent publication EP1951748B1, “HEPATITIS C VIRUS VARIANTS” (Vertex Pharmaceuticals, Inc., priority 2005, dated 2007).
Where “and” joins values, the source holds several entries; their conditions need not be identical. Equal values may be shown once.

How the values were obtained:
[1] = tested on: HCV replicon cells containing R155K; type: cell-based; settings: for Replicon Assay (resistance of viral variant): R155K, value (spread in brackets)
Text: (§1) The stable wild-type (mADE) and variant HCV sub-genomic replicon cell lines were generated using the T7 RNA runoff transcripts from the corresponding high efficiency Con1 replicon plasmids.
(§2) The stable wild-type and variant HCV sub-genomic replicon cell lines were generated using the T7 RNA runoff transcripts from the corresponding high efficiency Con1 replicon plasmids.

[2] = tested on: HCV replicon cells containing R155M; type: cell-based; settings: for Replicon Assay (resistance of viral variant): R155M, value (spread in brackets)
Text: as §1, §2

[3] = tested on: HCV replicon cells containing R155T; type: cell-based; settings: for Replicon Assay (resistance of viral variant): R155T, value (spread in brackets)
Text: as §1, §2

[4] = tested on: HCV replicon cells containing R155I; type: cell-based; settings: value (spread in brackets), 2880 min
[5] = tested on: HCV replicon cells containing R155G; type: cell-based; settings: value (spread in brackets), 2880 min
[6] = tested on: HCV NS3 protease T54A; type: biochemical
[7] = tested on: HCV NS3 protease A156S; type: biochemical
[8] = tested on: HCV NS3 protease A156T; type: biochemical
[9] = tested on: HCV NS3 protease A156I
[10] = tested on: Con1-based HCV replicon cells with a different set of adaptive mutations (24-2); settings: determined previously in 24-2 replicon cells (refs 25,41); read-out: 48-h IC50; cited from earlier work
[11] = tested on: genotype 1 HCV; assay: Phase 1b clinical trial (Study VX04-950-101), plasma HCV RNA; settings: for Δ in VL (Log change in HCV RNA from nadir to Day 14 (end of dosing)): 14 days, one value per subject
[12] = Hepatitis C virus, 48 h, read-out: Replicon IC50

COc1ccc2c(O[C@@H]3C[C@H]4C(=O)N[C@]5(C(=O)O)C[C@H]5/C=C\CCCCC[C@H](NC(=O)OC5CCCC5)C(=O)N4C3)cc(-c3csc(NC(C)C)n3)nc2c1 [BILN 2061]
Replicon Assay (resistance of viral variant) ([1]; 2880 min): 355 (213) | Replicon Assay (resistance of viral variant) ([2]; 2880 min): 42.2(2.1) | Replicon Assay (resistance of viral variant) ([3]; 2880 min): 645 (173) | Replicon Assay (resistance of viral variant) [4]: 36.5 (9.5) | Replicon Assay (resistance of viral variant) [5]: 821 (208) | IC50 ([6]; T54A): 0.01 µM | Fold change ([6]; enzyme IC50 of T54A compared to the genotype 1a HCV-H reference strain, 15 min): 2.3 | IC50 ([7]; A156S): 0.0074 µM | Fold change ([7]; enzyme IC50 of A156S compared to the genotype 1a HCV-H reference strain, 15 min): 1.6 | Fold change ([8]; enzyme IC50 of A156T compared to the genotype 1a HCV-H reference strain, 15 min): >183

CC(C)(C)OC(=O)N[C@H]1CCCCC/C=C\[C@@H]2C[C@@]2(C(=O)NS(=O)(=O)C2CC2)NC(=O)[C@@H]2C[C@@H](OC(=O)N3Cc4cccc(F)c4C3)CN2C1=O [ITMN-191]
Replicon Assay (resistance of viral variant) ([1]; 2880 min): 62.8 | Replicon Assay (resistance of viral variant) ([3]; 2880 min): 9.2 | Replicon Assay (resistance of viral variant) [4]: 1.3(0.2) | Replicon Assay (resistance of viral variant) [5]: 18.7(3.0)

NC(=O)c1ncn([C@@H]2O[C@H](CO)[C@@H](O)[C@H]2O)n1 [Ribavirin, 1-beta-D-ribofuranosyl-1H-- 1,2,4-triazole-3-carboxamide]
IC50 [1, 12]: 37 ± 17 µM | Fold change ([1]; replicon IC50 of R155K divided by that of the wild-type HCV replicon, 2880 min): 0.6 ± 0.3 | IC50 [2, 12]: 39 ± 5 µM | Fold change ([2]; replicon IC50 of R155M divided by that of the wild-type HCV replicon, 2880 min): 0.7 ± 0.1 | IC50 [3, 12]: 32 ± 18 µM | Fold change ([3]; replicon IC50 of R155T divided by that of the wild-type HCV replicon, 2880 min): 0.6 ± 0.3

CC(C)(C)NC(=O)N[C@H](C(=O)N1C[C@H]2[C@@H]([C@H]1C(=O)NC(CC1CCC1)C(=O)C(N)=O)C2(C)C)C(C)(C)C (stereo partly drawn) [SCH 503034]
Replicon Assay (resistance of viral variant) ([1]; 2880 min): 6.2(4.9) | Replicon Assay (resistance of viral variant) ([2]; 2880 min): 2.5(0.3) | Replicon Assay (resistance of viral variant) ([3]; 2880 min): 10.2(2.4) | Replicon Assay (resistance of viral variant) [4]: 6.6(2.1) | Replicon Assay (resistance of viral variant) [5]: 2.8(0.6)

CCC[C@H](NC(=O)[C@@H]1[C@H]2CCC[C@H]2CN1C(=O)[C@@H](NC(=O)[C@@H](NC(=O)c1cnccn1)C1CCCCC1)C(C)(C)C)C(=O)C(=O)NC1CC1 [VX-950]
IC50 ([8]; A156T, one row per patient-specific genetic background): 21.5 µM and 15 µM | IC50 [9]: > 50 µM | IC50 [10]: 0.354 µM | HCV RNA levels at Day 14 ([11]; 7 patients with continued response, down to undetectable (<10 IU/mL)): ≤ 64 IU/mL | drop in HCV RNA (initial response) ([11]; 13 patients who later rebounded during dosing): greater than 2 log10 | Δ in VL (Log change in HCV RNA from nadir to Day 14 (end of dosing)) ([11]; dose 450 (mg q8h)): 1.82 and 0.65 and 0.41 and 1.84 and 1.06 | Δ in VL (Log change in HCV RNA from nadir to Day 14 (end of dosing)) ([11]; dose 750 (mg q8h)): 0.73 and 0.22 | Δ in VL (Log change in HCV RNA from nadir to Day 14 (end of dosing)) ([11]; dose 1250 (mg q12h)): 3.20 and 1.16 and 1.93 and 0.05 and 0.33 and 0.62 and 0.26
